# Test results taken from publication PMC7293031 (Nucleic Acids Research, 2020).
# Experiments:
# PvrA [1] = biological target: T1, PvrA (Pseudomonas aeruginosa, UniProt Q9HZP1, R136A); assay: ITC; assay type: binding
# T1 sequence (Q9HZP1 1-212 R136A): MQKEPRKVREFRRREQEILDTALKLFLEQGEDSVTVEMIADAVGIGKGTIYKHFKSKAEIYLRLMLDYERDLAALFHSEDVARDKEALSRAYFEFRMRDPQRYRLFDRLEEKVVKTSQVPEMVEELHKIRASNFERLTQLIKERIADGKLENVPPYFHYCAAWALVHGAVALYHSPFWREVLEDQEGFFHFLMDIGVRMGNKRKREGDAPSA
# PvrA [2] = biological target: T2, PvrA (Pseudomonas aeruginosa, UniProt Q9HZP1); assay: ITC at […]°C; assay type: binding
# T2 sequence (Q9HZP1 1-212): T1 sequence (Q9HZP1 1-212 R136A)
smiles,measurement,setting,value
CCCCCCCCCCCCCCCC(=O)SCCNC(=O)CCNC(=O)[C@H](O)C(C)(C)COP(=O)(O)OP(=O)(O)OC[C@H]1O[C@@H](n2cnc3c(N)ncnc32)[C@H](O)[C@@H]1OP(=O)(O)O [palmitoyl-coenzyme A],Kd,PvrA [1],262 µM
same,Kd,PvrA [2],31 µM
